Assay results as given in publication PMC6941952, “A homogeneous bioluminescent immunoassay to probe cellular signaling pathway regulation” (Communications Biology, 2020).
Several values for one entry are separate records, joined by “and”; a condition that tells them apart may be missing. Equal entries are not always repeated.

Tested on: total IκBα
Assay: NanoBiT cell-based immunoassay, total IκBα in MCF-7 cells
Design: species or system human
Settings: for Total IkB Average / Average / IkB Average: background subtracted; for Raw data / Subtract background / Average: Figure 2d; for Average IKB (background subtracted) / Raw data IKB / Subtract reagent background IKB: 30 min, MCF-7, Fig 7a; for IkB Average / IKB Raw data / IKB Subtract reagent background: without CHX
Summary of the method: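 Cells were lysed in 0.1% digitonin buffer, then target protein was detected with two primary antibodies plus NanoBiT detection antibodies (90 min, 23 °C), read as luminescence minus reagent background. For pSTAT3, A431 cells were serum-starved overnight before inhibitor and stimulator. For IκBα, MCF-7 cells got inhibitor for 60 min before TNFα. IC50 came from variable-slope sigmoidal fits.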

[1] = Figure 3a and 3b, listed as TNF
[2] = No MG132, TNF 2 min, listed as TNF
[3] = No MG132, TNF 4 min, listed as TNF
[4] = No MG132, TNF 6 min, listed as TNF
[5] = No MG132, TNF 8 min, listed as TNF
[6] = No MG132, TNF 10 min, listed as TNF
[7] = No MG132, TNF 12 min, listed as TNF
[8] = No MG132, TNF 15 min, listed as TNF
[9] = No MG132, TNF 30 min, listed as TNF
[10] = TNF 0.00038147 ng/ml, listed as TNF
[11] = TNF 0.00152588 ng/ml, listed as TNF
[12] = TNF 0.00610352 ng/ml, listed as TNF
[13] = TNF 0.0244141 ng/ml, listed as TNF
[14] = TNF 0.0976562 ng/ml, listed as TNF
[15] = TNF 0.390625 ng/ml, listed as TNF
[16] = TNF 1.5625 ng/ml, listed as TNF

Substance: TNFα
- Total IkB Average (Figure 3a and 3b): 42170
- Total IkB Raw data [1]: 63440 and 64850 and 64790
- Total IkB Subtract reagent background [1]: 42600 and 41250 and 42660
- Raw data (Cell # 3500, listed as TNF): 18670 and 18820
- Subtract background (Cell # 3500, listed as TNF): 4540 and 4140
- Raw data (Cell # 7000, listed as TNF): 18660 and 18670
- Subtract background (Cell # 7000, listed as TNF): 4530 and 3990
- Raw data (Cell # 14000, listed as TNF): 18430 and 19060
- Subtract background (Cell # 14000, listed as TNF): 4300 and 4380
- Raw data (Cell # 21000): 19110
- Subtract background (Cell # 21000, listed as TNF): 4980 and 4430
- Raw data (Cell # 28000, listed as TNF): 20250 and 19900
- Subtract background (Cell # 28000, listed as TNF): 6120 and 5220
- Raw data (Cell # 35000, listed as TNF): 20910 and 20760
- Subtract background (Cell # 35000, listed as TNF): 6780 and 6080
- Raw data (Cell # 42000, listed as TNF): 21720 and 21040
- Subtract background (Cell # 42000, listed as TNF): 7590 and 6360
- Raw data (Cell # 49000, listed as TNF): 22850 and 23430
- Subtract background (Cell # 49000, listed as TNF): 8720 and 8750
- Raw data (Cell # 56000, listed as TNF): 23160 and 23600
- Subtract background (Cell # 56000, listed as TNF): 9030 and 8920
- Raw data (Cell # 63000, listed as TNF): 26970 and 26330
- Subtract background (Cell # 63000, listed as TNF): 12840 and 11650
- Average (Cell # 3500): 4340
- Average (Cell # 7000): 4260
- Average (Cell # 14000): 4340
- Average (Cell # 21000): 4705
- Average (Cell # 28000): 5670
- Average (Cell # 35000): 6430
- Average (Cell # 42000): 6975
- Average (Cell # 49000): 8735
- Average (Cell # 56000): 8975
- Average (Cell # 63000): 12245
- Total IkB Average (No MG132, TNF 2 min): 63885
- Total IkB Raw data [2]: 78720 and 79300 and 81370 and 83380
- Total IkB Subtract reagent background [2]: 61913 and 62493 and 64563 and 66573
- Total IkB Average (No MG132, TNF 4 min): 62935
- Total IkB Raw data [3]: 77560 and 79450 and 81310 and 80650
- Total IkB Subtract reagent background [3]: 60753 and 62643 and 64503 and 63843
- Total IkB Average (No MG132, TNF 6 min): 62480
- Total IkB Raw data [4]: 79920 and 79580 and 79430 and 78220
- Total IkB Subtract reagent background [4]: 63113 and 62773 and 62623 and 61413
- Total IkB Average (No MG132, TNF 8 min): 58228
- Total IkB Raw data [5]: 76120 and 76190 and 73510 and 74320
- Total IkB Subtract reagent background [5]: 59313 and 59383 and 56703 and 57513
- Total IkB Average (No MG132, TNF 10 min): 52595
- Total IkB Raw data [6]: 72590 and 72810 and 65780 and 66430
- Total IkB Subtract reagent background [6]: 55783 and 56003 and 48973 and 49623
- Total IkB Average (No MG132, TNF 12 min): 41533
- Total IkB Raw data [7]: 62400 and 61420 and 53610 and 55930
- Total IkB Subtract reagent background [7]: 45593 and 44613 and 36803 and 39123
- Total IkB Average (No MG132, TNF 15 min): 29070
- Total IkB Raw data [8]: 51070 and 48840 and 41650 and 41950
- Total IkB Subtract reagent background [8]: 34263 and 32033 and 24843 and 25143
- Total IkB Average (No MG132, TNF 30 min): 9615
- Total IkB Raw data [9]: 28150 and 26460 and 25400 and 25680
- Total IkB Subtract reagent background [9]: 11343 and 9653 and 8593 and 8873
- Average IKB (background subtracted) (TNF 0.00038147 ng/ml): 68883
- Raw data IKB [10]: 80810 and 81860 and 75990
- Subtract reagent background IKB [10]: 70140 and 71190 and 65320
- Average IKB (background subtracted) (TNF 0.00152588 ng/ml): 65947
- Raw data IKB [11]: 78690 and 78640 and 72520
- Subtract reagent background IKB [11]: 68020 and 67970 and 61850
- Average IKB (background subtracted) (TNF 0.00610352 ng/ml): 63850
- Raw data IKB [12]: 76470 and 76630 and 70460
- Subtract reagent background IKB [12]: 65800 and 65960 and 59790
- Average IKB (background subtracted) (TNF 0.0244141 ng/ml): 59300
- Raw data IKB [13]: 73310 and 70780 and 65820
- Subtract reagent background IKB [13]: 62640 and 60110 and 55150
- Average IKB (background subtracted) (TNF 0.0976562 ng/ml): 52567
- Raw data IKB [14]: 65850 and 63760 and 60100
- Subtract reagent background IKB [14]: 55180 and 53090 and 49430
- Average IKB (background subtracted) (TNF 0.390625 ng/ml): 37353
- Raw data IKB [15]: 46770 and 47240 and 50060
- Subtract reagent background IKB [15]: 36100 and 36570 and 39390
- Average IKB (background subtracted) (TNF 1.5625 ng/ml): 21387
- Raw data IKB [16]: 30440 and 30700 and 35030
- Subtract reagent background IKB [16]: 19770 and 20030 and 24360
- Average IKB (background subtracted) (TNF 6.25 ng/ml): 12817
- Raw data IKB (TNF 6.25 ng/ml, listed as TNF): 23480 and 22250 and 24730
- Subtract reagent background IKB (TNF 6.25 ng/ml, listed as TNF): 12810 and 11580 and 14060
- Average IKB (background subtracted) (TNF 25 ng/ml): 10187
- Raw data IKB (TNF 25 ng/ml, listed as TNF): 20190 and 20330 and 22050
- Subtract reagent background IKB (TNF 25 ng/ml, listed as TNF): 9520 and 9660 and 11380
- Average IKB (background subtracted) (TNF 100 ng/ml): 9587
- Raw data IKB (TNF 100 ng/ml, listed as TNF): 19860 and 20090 and 20820
- Subtract reagent background IKB (TNF 100 ng/ml, listed as TNF): 9190 and 9420 and 10150
- IkB Average (TNF 5 min): 50908
- IKB Raw data (TNF 5 min, listed as TNF): 65320 and 61760 and 61990 and 62780
- IKB Subtract reagent background (TNF 5 min, listed as TNF): 53265 and 49705 and 49935 and 50725
- IkB Average (TNF 10 min): 31425
- IKB Raw data (TNF 10 min, listed as TNF): 42500 and 40590 and 43600 and 47230
- IKB Subtract reagent background (TNF 10 min, listed as TNF): 30445 and 28535 and 31545 and 35175
- IkB Average (TNF 20 min): 10930
- IKB Raw data (TNF 20 min, listed as TNF): 21120 and 20330 and 22530 and 27960
- IKB Subtract reagent background (TNF 20 min, listed as TNF): 9065 and 8275 and 10475 and 15905
- IkB Average (TNF 30 min): 8948
- IKB Raw data (TNF 30 min, listed as TNF): 19500 and 19660 and 20770 and 24080
- IKB Subtract reagent background (TNF 30 min, listed as TNF): 7445 and 7605 and 8715 and 12025
- IkB Average (TNF 40 min): 12565
- IKB Raw data (TNF 40 min, listed as TNF): 24080 and 23090 and 23770 and 27540
- IKB Subtract reagent background (TNF 40 min, listed as TNF): 12025 and 11035 and 11715 and 15485
- IkB Average (TNF 60 min): 23095
- IKB Raw data (TNF 60 min, listed as TNF): 35230 and 33190 and 36060 and 36120
- IKB Subtract reagent background (TNF 60 min, listed as TNF): 23175 and 21135 and 24005 and 24065
- IkB Average (TNF 80 min): 35000
- IKB Raw data (TNF 80 min, listed as TNF): 46920 and 46230 and 46940 and 48130
- IKB Subtract reagent background (TNF 80 min, listed as TNF): 34865 and 34175 and 34885 and 36075
- IkB Average (TNF 100 min): 40533
- IKB Raw data (TNF 100 min, listed as TNF): 53930 and 50010 and 52000 and 54410
- IKB Subtract reagent background (TNF 100 min, listed as TNF): 41875 and 37955 and 39945 and 42355
- IkB Average (TNF 120 min): 41718
- IKB Raw data (TNF 120 min, listed as TNF): 56260 and 53820 and 52280 and 52730
- IKB Subtract reagent background (TNF 120 min, listed as TNF): 44205 and 41765 and 40225 and 40675
